Key:
OCT2CS = molecular target: T1, OCT2CS (Homo sapiens, UniProt O15244); assay: [3H]-verapamil accumulation in OCT2CS-injected oocytes; type: cell-based; details: 100 nM [3H]-verapamil, 30 min
T1 sequence (O15244 1-555): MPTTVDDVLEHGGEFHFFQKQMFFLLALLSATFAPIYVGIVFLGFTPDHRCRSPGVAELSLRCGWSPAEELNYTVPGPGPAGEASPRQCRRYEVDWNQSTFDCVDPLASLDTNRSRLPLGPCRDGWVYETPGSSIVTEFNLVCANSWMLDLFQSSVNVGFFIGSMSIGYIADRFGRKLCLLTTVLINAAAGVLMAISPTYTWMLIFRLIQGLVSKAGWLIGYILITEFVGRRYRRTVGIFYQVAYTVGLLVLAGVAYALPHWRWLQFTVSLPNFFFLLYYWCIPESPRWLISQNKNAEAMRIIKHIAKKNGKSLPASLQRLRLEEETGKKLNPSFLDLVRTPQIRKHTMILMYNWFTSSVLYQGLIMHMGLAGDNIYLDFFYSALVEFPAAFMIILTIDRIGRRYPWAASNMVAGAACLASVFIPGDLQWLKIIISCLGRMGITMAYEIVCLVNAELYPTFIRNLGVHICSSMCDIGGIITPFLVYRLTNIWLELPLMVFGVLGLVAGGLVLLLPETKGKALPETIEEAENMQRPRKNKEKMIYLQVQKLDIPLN

WT hOCT1 = molecular target: T2, WT hOCT1 (Homo sapiens, UniProt O15245); details: cited from earlier work
T2 sequence (O15245 1-554): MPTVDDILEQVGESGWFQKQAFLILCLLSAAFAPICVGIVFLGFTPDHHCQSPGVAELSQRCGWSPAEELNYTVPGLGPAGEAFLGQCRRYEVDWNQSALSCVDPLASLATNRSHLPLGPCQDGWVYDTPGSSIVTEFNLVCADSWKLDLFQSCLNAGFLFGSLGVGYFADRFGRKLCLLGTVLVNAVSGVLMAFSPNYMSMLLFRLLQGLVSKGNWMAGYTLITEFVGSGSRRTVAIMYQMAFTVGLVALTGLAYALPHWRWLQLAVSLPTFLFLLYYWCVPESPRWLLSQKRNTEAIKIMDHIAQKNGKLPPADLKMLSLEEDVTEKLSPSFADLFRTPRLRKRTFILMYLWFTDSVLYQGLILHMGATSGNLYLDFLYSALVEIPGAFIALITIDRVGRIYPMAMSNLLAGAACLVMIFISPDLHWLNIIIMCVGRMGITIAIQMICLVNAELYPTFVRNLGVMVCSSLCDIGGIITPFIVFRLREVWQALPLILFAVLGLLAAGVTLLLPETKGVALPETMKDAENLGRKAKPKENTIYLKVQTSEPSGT

Row | Compound | Uptake of [3H]-verapamil by OCT2CS (OCT2CS; n=3, listed as VPM) | Uptake of [3H]-verapamil by OCT2CS (OCT2CS; n=3, listed as verapamil) | Kt for metformin, WT hOCT1, previous reports (WT hOCT1) [mM]
1 | COc1ccc(CCN(C)CCCC(C#N)(c2ccc(OC)c(OC)c2)C(C)C)cc1OC (racemic) [(±)-VPM, verapamil] | does not mediate uptake | does not accumulate | –
2 | CN(C)C(=N)N=C(N)N [metformin] | – | – | 1 to 5

Reference: PMC10055046 (bioRxiv, 2023)
